This note sets out measurements from paper PMC8857278, “Incomplete tricarboxylic acid cycle and proton gradient in Pandoravirus massiliensis: is it still a virus?” (The ISME Journal, 2021).

The subject of one assay is T1, ORF132.
T1 construct: full-length ORF, 146 residues; N-terminal Strep-tag, codon-optimised synthetic gene in pET22b(+); E. coli BL21(DE3); StrepTrap purified
Description: isocitrate dehydrogenase activity assay kit, absorbance […] nm, NADH standard curve, Michaelis-Menten fit. The settings on record: 37 °C, 100 µL, kit buffer; NAD+ or NADP+ co-substrate not specified; varied substrate implied to be isocitrate. Format: biochemical, Pandoravirus massiliensis.

The next assay relates to T2, human IDH.
T2 construct: gene IDH1
The conditions noted are these: 37 °C, 100 µL, kit buffer; NAD+ or NADP+ co-substrate not specified; varied substrate implied to be isocitrate.

For orientation: Km means the substrate concentration at which the rate is half of its maximum.

As for `O=C(O)C[C@H](C(=O)O)[C@@H](O)C(=O)O` [isocitrate], the figures for the Michaelis-Menten constant (Km) in the assay with ORF132 and in the assay on human IDH were 51.8 µM and 585 µM, respectively.
